Experimental data from patent publication US20160375006A1, “USES OF PARALOG-SELECTIVE INHIBITORS OF GSK3 KINASES” (priority 2012, published 2016).
pIC50: −log10 of the molar value. Read-outs that look alike come from different tables or passages of the source.

What was measured:
CaMK2γ = CaMK2γ (Homo sapiens, UniProt Q13555)
Method: (§1) This was completed utilizing one of two assays depending on the kinase being examined.
(§2) A solution of IMAP binding reagent (IMAP Screening Express kit; Molecular Devices) (60 μL) was added to each well and incubated for 30 minutes.
(§3) A solution of termination buffer (QuickScout Screening assist MSA; Carna Biosciences) (60 μL) was added to each well. The entire reaction mixture was then applied to a LabChip3000 system (Caliper Life Science) and the product and substrate peptide peaks were separated and quantified.
(§4) The assay utilized was identical to that of the single point inhibitory activity determination (MSA) but run in dose response. […] A solution of termination buffer (QuickScout Screening assist MSA; Carna Biosciences) (60 μL) was added to each well. The entire reaction mixture was then applied to a LabChip3000 system (Caliper Life Science) and the product and substrate peptide peaks were separated and quantified.

BMX = BMX (Homo sapiens, UniProt P51813)
Method: as §1, §2, §3, §4

FGFR3 = FGFR3 (Homo sapiens, UniProt P22607)
Method: as §2, §3, §4

PKR = target: T1, PKR (Homo sapiens, UniProt P19525); assay: Carna kinase panel; format: biochemical
T1 construct: purchased Carna Biosciences
Method: as §1, §2, §3

PDHK4 = PDHK4 (Homo sapiens, UniProt Q16654)
Method: as §1, §2, §3, §4

EML4-ALK = EML4-ALK (Homo sapiens, UniProt Q9UM73)
Method: as §1, §2, §3, §4

MARK2 = MARK2 (Homo sapiens, UniProt Q7KZI7)
Method: as §1, §2, §3, §4

SRM = SRM (Homo sapiens, UniProt Q9H3Y6)
SRM, sequence (Q9H3Y6 whole entry): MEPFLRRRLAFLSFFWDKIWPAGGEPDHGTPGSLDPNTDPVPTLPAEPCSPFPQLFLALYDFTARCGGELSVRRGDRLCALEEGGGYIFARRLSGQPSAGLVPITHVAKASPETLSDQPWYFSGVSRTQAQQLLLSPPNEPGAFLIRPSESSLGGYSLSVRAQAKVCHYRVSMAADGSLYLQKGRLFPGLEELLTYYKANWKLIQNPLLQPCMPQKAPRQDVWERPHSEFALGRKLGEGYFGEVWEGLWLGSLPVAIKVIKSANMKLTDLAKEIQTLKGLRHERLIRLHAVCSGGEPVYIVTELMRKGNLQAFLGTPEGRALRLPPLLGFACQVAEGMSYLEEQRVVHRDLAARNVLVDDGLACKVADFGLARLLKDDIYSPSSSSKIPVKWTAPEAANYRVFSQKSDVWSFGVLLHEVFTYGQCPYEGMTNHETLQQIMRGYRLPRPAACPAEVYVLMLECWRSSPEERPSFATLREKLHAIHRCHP
Method: as §1, §2, §3, §4

FGFR2 = FGFR2 (Homo sapiens, UniProt P21802)
Method: as §1, §2, §3

CK1α = CK1α (Homo sapiens, UniProt P48729)
Method: as §1, §3
(§5) The assay utilized was identical to that of the single point inhibitory activity determination (MSA) but run in dose response.

AXL = AXL (Homo sapiens, UniProt P30530)
Method: as §1, §2, §3

RSK3 = target: T2, RSK3 (Homo sapiens, UniProt Q15349); assay: Carna kinase panel; format: biochemical
T2 construct: purchased Carna Biosciences
Method: as §1, §2, §3

PKCη = PKCη (Homo sapiens, UniProt P24723)
Method: as §1, §2, §3, §4

EPHB2 = EPHB2 (Homo sapiens, UniProt P29323)
Method: as §1, §2, §3, §4

BRAF_Cascade = BRAF_Cascade (Homo sapiens, UniProt P15056)
BRAF_Cascade, sequence (P15056 whole entry): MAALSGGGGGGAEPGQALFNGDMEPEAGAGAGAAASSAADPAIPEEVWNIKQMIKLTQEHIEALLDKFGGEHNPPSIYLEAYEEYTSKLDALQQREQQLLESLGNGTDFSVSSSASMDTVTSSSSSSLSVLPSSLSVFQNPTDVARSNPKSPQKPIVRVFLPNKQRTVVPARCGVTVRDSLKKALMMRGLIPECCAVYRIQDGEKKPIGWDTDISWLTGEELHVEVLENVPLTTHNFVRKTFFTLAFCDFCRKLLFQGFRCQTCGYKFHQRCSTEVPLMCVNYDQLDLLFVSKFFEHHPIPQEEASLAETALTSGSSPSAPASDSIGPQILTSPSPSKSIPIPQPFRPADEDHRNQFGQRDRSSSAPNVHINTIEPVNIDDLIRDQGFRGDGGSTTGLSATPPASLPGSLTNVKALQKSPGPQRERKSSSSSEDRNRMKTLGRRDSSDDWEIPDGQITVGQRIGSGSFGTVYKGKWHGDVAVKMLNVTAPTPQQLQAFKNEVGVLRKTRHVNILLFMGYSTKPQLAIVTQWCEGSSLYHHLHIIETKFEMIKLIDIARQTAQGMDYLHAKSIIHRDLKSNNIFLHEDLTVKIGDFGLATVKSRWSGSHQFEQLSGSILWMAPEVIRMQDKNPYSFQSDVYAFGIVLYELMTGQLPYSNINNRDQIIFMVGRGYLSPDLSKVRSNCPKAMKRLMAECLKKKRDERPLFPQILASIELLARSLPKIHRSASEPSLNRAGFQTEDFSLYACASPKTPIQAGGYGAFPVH
Method: as §1, §2, §3, §4

PDGFRα(V561D) = PDGFRα(V561D) (Homo sapiens, UniProt P16234, V561D)
PDGFRα(V561D), sequence (P16234 24-1089 V561D): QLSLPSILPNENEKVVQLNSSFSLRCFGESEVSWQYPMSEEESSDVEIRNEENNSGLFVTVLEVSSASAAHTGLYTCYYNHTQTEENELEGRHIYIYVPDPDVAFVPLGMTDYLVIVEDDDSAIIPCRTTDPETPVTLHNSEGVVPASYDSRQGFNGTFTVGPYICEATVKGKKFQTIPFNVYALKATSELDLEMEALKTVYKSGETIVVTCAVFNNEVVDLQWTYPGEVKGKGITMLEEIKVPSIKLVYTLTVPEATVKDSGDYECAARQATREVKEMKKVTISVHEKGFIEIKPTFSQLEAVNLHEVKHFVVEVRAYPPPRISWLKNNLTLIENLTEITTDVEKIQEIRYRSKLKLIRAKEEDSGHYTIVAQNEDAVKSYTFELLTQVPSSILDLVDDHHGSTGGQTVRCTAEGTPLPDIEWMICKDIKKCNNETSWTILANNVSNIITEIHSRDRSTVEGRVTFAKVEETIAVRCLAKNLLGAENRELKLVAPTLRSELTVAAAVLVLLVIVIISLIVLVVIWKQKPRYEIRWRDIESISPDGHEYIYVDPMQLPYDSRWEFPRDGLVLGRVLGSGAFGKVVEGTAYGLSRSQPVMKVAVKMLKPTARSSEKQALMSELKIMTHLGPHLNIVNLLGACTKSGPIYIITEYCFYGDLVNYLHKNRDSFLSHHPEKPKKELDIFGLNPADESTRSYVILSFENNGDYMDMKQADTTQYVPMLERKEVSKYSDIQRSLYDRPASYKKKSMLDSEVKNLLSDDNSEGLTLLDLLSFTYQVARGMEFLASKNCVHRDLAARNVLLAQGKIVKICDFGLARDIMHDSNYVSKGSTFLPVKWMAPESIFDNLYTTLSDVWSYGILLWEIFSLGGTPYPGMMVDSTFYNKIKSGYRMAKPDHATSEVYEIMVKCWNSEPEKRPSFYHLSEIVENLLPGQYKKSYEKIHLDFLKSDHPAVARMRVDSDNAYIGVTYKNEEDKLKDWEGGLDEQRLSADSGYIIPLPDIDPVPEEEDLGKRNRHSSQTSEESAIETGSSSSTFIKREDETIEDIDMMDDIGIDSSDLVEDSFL
Method: as §1, §2, §3, §4

EPHB1 = EPHB1 (Homo sapiens, UniProt P54762)
Method: as §1, §2, §3, §4

PDGFRα = PDGFRα (Homo sapiens, UniProt P16234)
PDGFRα, sequence (P16234 24-1089): as the sequence (P16234 24-1089 V561D) above, with D538V counted along it
Method: as §1, §2, §3, §4

MSK2 = MSK2 (Homo sapiens, UniProt O75676)
Method: as §1, §2, §3, §4

IKKβ = IKKβ (Homo sapiens, UniProt O14920)
Method: as §1, §2, §3, §4

PKCβ1 = PKCβ1 (Homo sapiens, UniProt P05771)
PKCβ1, sequence (P05771 whole entry): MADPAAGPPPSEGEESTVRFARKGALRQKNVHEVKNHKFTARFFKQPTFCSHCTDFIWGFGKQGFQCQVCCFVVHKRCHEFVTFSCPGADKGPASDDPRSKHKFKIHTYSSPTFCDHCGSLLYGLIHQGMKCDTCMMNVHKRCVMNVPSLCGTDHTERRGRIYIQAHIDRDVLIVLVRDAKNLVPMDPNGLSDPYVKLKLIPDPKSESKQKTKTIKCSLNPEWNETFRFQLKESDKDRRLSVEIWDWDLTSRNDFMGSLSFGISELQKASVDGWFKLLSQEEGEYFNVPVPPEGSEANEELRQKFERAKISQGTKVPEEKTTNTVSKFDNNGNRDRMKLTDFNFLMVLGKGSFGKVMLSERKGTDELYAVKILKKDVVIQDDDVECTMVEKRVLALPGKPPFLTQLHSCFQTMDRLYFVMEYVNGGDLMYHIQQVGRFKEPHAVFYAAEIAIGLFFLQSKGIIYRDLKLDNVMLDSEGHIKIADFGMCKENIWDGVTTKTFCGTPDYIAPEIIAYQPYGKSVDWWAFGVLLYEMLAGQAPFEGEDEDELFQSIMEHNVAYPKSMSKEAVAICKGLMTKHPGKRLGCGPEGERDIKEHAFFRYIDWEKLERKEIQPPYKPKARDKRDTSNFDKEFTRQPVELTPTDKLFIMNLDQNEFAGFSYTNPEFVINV
Method: as §1, §2, §3

KDR = KDR (Homo sapiens, UniProt P35968)
Method: as §1, §2, §3, §4

SRPK2 = SRPK2 (Homo sapiens, UniProt P78362)
Method: as §2, §3, §4

FGFR4(V550E) = FGFR4(V550E) (Homo sapiens, UniProt P22455, V550E)
FGFR4(V550E), sequence (P22455 22-802 V550E): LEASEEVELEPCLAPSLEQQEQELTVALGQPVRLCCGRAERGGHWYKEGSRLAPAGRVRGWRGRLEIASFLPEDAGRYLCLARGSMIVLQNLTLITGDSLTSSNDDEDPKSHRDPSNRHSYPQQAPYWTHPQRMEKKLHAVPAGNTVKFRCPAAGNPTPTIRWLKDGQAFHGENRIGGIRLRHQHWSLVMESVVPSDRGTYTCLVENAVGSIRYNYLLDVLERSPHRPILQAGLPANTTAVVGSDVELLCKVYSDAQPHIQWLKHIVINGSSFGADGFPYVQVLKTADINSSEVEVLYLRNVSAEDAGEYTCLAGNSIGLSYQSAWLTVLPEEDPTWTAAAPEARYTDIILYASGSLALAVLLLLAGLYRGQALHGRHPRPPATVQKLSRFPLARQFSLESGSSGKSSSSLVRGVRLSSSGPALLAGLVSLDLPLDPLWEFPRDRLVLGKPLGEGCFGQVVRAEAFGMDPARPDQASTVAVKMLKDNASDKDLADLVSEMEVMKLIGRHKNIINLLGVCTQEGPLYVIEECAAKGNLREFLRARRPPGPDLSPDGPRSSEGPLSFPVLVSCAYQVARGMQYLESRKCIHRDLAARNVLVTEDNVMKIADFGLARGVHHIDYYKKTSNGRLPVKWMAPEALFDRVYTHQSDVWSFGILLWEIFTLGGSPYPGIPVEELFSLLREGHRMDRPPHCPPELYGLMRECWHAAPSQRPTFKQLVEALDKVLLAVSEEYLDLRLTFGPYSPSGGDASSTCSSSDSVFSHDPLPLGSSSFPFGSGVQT
Method: as §1, §2, §3, §4

MAP3K3_Cascade = MAP3K3_Cascade (Homo sapiens, UniProt Q99759)
Method: as §1, §3, §5

PLK2 = PLK2 (Homo sapiens, UniProt Q9NYY3)
Method: as §1, §2, §3, §4

EGFR(d746-750) = EGFR(d746-750) (Homo sapiens, UniProt P00533, DEL746-750)
Method: as §1, §2, §3

CK1γ3 = CK1γ3 (Homo sapiens, UniProt Q9Y6M4)
Method: as §1, §2, §3, §4

BRAF(V600E)_Cascade = BRAF(V600E)_Cascade (Homo sapiens, UniProt P15056, V600E)
BRAF(V600E)_Cascade, sequence (P15056 whole entry V600E): as the sequence (P15056 whole entry) above, with V600E counted along it
Method: as §1, §2, §3

RET(Y791F) = RET(Y791F) (Homo sapiens, UniProt P07949, Y791F)
Method: as §1, §2, §3, §4

Erk1 = Erk1 (Homo sapiens, UniProt P27361)
Method: as §1, §2, §3

HIPK4 = target: T3, HIPK4 (Homo sapiens, UniProt Q8NE63); assay: Carna kinase panel; format: biochemical
T3 construct: purchased Carna Biosciences
Method: as §1, §2, §3

CDK3/CycE1 = CDK3/CycE1 (Homo sapiens, UniProt Q00526)
Method: as §1, §2, §3, §4

BRK = BRK (Homo sapiens, UniProt Q13882)
p38β = p38β (Homo sapiens, UniProt Q15759)
Method: as §1, §2, §3, §4

AurA = AurA (Homo sapiens, UniProt O14965)
AurA, sequence (O14965 whole entry): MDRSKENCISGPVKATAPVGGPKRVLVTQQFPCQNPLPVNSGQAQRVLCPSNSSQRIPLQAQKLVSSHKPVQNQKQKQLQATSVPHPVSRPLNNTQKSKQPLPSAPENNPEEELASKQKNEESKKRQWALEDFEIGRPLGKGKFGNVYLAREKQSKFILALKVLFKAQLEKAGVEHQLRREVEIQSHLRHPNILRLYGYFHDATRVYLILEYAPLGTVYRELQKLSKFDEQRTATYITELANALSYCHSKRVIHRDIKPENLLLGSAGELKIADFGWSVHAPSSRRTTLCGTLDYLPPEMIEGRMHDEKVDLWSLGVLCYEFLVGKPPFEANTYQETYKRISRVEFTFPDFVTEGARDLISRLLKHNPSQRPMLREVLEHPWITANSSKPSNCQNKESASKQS
Method: as §1, §3, §5

MAPKAPK3 = MAPKAPK3 (Homo sapiens, UniProt Q16644)
Method: as §1, §2, §3, §4

CK1ε = CK1ε (Homo sapiens, UniProt P49674)
Method: as §1, §2, §3

CDK2/CycE1 = CDK2/CycE1 (Homo sapiens, UniProt P24941)
Method: as §1, §2, §3, §4

FGFR3, sequence (P22607 23-806): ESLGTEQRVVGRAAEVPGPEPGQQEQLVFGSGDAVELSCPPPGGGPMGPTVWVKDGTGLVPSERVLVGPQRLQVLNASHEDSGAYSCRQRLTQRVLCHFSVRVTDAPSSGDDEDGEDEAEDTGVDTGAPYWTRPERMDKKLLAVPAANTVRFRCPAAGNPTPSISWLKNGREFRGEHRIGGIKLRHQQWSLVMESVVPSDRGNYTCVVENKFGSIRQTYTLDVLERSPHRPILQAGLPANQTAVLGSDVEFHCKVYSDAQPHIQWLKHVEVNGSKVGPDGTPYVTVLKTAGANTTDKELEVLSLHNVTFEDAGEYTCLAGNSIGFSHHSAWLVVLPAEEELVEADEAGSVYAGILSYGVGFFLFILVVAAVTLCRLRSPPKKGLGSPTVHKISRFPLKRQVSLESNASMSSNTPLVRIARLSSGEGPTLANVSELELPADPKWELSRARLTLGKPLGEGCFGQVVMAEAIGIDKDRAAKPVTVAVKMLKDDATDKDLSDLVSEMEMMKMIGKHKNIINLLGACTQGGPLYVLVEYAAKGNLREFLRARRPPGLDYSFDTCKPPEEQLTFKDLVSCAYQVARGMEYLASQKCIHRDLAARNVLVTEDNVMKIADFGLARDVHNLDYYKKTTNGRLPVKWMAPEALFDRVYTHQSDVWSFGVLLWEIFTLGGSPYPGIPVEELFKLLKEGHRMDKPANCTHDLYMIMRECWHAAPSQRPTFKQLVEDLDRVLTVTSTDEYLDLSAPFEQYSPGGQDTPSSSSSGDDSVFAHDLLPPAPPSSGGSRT

CC[C@@]1(c2ccccc2)C2=C(CC(C)(C)CC2=O)Nc2n[nH]cc21 [BRD0705]
% Inhibition at 10 μM (CaMK2γ): −4.7% | % Inhibition at 10 μM (BMX): 2.7% | % Inhibition at 10 μM (FGFR3): −2.8% | % Inhibition at 10 μM (PKR): 2.0% | % Inhibition at 10 μM (PDHK4): 11.0% | % Inhibition at 10 μM (EML4-ALK): 3.4% | % Inhibition at 10 μM (MARK2): −6.2% | % Inhibition at 10 μM (SRM): −5.5% | % Inhibition at 10 μM (FGFR2): −9.2% | % Inhibition at 10 μM (CK1α): 6.0% | % Inhibition at 10 μM (AXL): 3.7% | % Inhibition at 10 μM (RSK3): −7.9% | % Inhibition at 10 μM (PKCη): −4.0% | % Inhibition at 10 μM (EPHB2): 6.5% | % Inhibition at 10 μM (BRAF_Cascade): 7.8% | % Inhibition at 10 μM (PDGFRα(V561D)): −3.7% | % Inhibition at 10 μM (EPHB1): −9.9% | % Inhibition at 10 μM (PDGFRα): −0.8% | % Inhibition at 10 μM (MSK2): −2.5% | % Inhibition at 10 μM (IKKβ): −4.0% | % Inhibition at 10 μM (PKCβ1): −6.5% | % Inhibition at 10 μM (KDR): −4.8% | % Inhibition at 10 μM (SRPK2): −2.5% | % Inhibition at 10 μM (FGFR4(V550E)): −0.5% | % Inhibition at 10 μM (MAP3K3_Cascade): 5.6% | % Inhibition at 10 μM (PLK2): 4.0% | % Inhibition at 10 μM (EGFR(d746-750)): −12.0% | % Inhibition at 10 μM (CK1γ3): −2.1% | % Inhibition at 10 μM (BRAF(V600E)_Cascade): 7.0% | % Inhibition at 10 μM (RET(Y791F)): −2.2% | % Inhibition at 10 μM (Erk1): −9.8% | % Inhibition at 10 μM (HIPK4): 2.1% | % Inhibition at 10 μM (CDK3/CycE1; CDK3/CycE1): 52.8% | pIC50 (CDK3/CycE1; read-out: IC50 CDK3/CycE1): 5.01 | % Inhibition at 10 μM (BRK): −1.4% | % Inhibition at 10 μM (p38β): −2.7% | % Inhibition at 10 μM (AurA): 6.1% | % Inhibition at 10 μM (MAPKAPK3): −8.3% | % Inhibition at 10 μM (CK1ε): −0.4% | % Inhibition at 10 μM (CDK2/CycE1; CDK2/CycE1): 53.4% | pIC50 (CDK2/CycE1; read-out: IC50 CDK2/CycE1): 5.03

CC(C)(C)Cc1[nH]nc2c1[C@](C)(c1ccccc1)C1=C(CC(C)(C)CC1=O)N2 [BRD3731]
% Inhibition 10 μM (CaMK2γ; 10 μM): −1.2% | % Inhibition 10 μM (BMX; 10 μM): −3.8% | % Inhibition 10 μM (FGFR3; 10 μM): −0.7% | % Inhibition 10 μM (PKR; 10 μM): 3.1% | % Inhibition 10 μM (PDHK4; 10 μM): 24.2% | % Inhibition 10 μM (EML4-ALK; 10 μM): −7.2% | % Inhibition 10 μM (MARK2; 10 μM): 16.5% | % Inhibition 10 μM (SRM; 10 μM): 0.9% | % Inhibition 10 μM (FGFR2; 10 μM): 1.9% | % Inhibition 10 μM (CK1α; 10 μM): −5.6% | % Inhibition 10 μM (AXL; 10 μM): 3.8% | % Inhibition 10 μM (RSK3; 10 μM): 35.5% | % Inhibition 10 μM (PKCη; 10 μM): −5.8% | % Inhibition 10 μM (EPHB2; 10 μM): 6.4% | % Inhibition 10 μM (BRAF_Cascade; 10 μM): 8.9% | % Inhibition 10 μM (PDGFRα(V561D); 10 μM): 6.6% | % Inhibition 10 μM (EPHB1; 10 μM): 2.7% | % Inhibition 10 μM (PDGFRα; 10 μM): 6.7% | % Inhibition 10 μM (MSK2; 10 μM): 12.6% | % Inhibition 10 μM (IKKβ; 10 μM): 0.2% | % Inhibition 10 μM (PKCβ1; 10 μM): 4.1% | % Inhibition 10 μM (KDR; 10 μM): 7.1% | % Inhibition 10 μM (SRPK2; 10 μM): 6.4% | % Inhibition 10 μM (FGFR4(V550E); 10 μM): 0.1% | % Inhibition 10 μM (MAP3K3_Cascade; 10 μM): 1.8% | % Inhibition 10 μM (PLK2; 10 μM): 8.5% | % Inhibition 10 μM (EGFR(d746-750); 10 μM): 2.5% | % Inhibition 10 μM (CK1γ3; 10 μM): −2.1% | % Inhibition 10 μM (BRAF(V600E)_Cascade; 10 μM): −5.2% | % Inhibition 10 μM (RET(Y791F); 10 μM): 9.5% | % Inhibition 10 μM (Erk1; 10 μM): 3.4% | % Inhibition 10 μM (HIPK4; 10 μM): 15.9% | pIC50 (CDK3/CycE1; CDK3/CycE1): < 5.00 | % Inhibition 10 μM (CDK3/CycE1; CDK3/CycE1, 10 μM): 29.2% | Fold Selectivity (CDK3/CycE1; IC50 CDK3/CycE1 / IC50 GSK3β): >370 fold | % Inhibition 10 μM (BRK; 10 μM): −5.6% | % Inhibition 10 μM (p38β; 10 μM): −0.2% | % Inhibition 10 μM (AurA; 10 μM): 15.4% | % Inhibition 10 μM (MAPKAPK3; 10 μM): 6.0% | % Inhibition 10 μM (CK1ε; 10 μM): 28.0% | pIC50 (CDK2/CycE1; CDK2/CycE1): 5.06 | % Inhibition 10 μM (CDK2/CycE1; CDK2/CycE1, 10 μM): 42.6% | Fold Selectivity (CDK2/CycE1; IC50 CDK2/CycE1 / IC50 GSK3β): 326.9 fold
